Patent US20250144036A1, “COMPOUNDS AND COMPOSITIONS FOR DELIVERY OF THERAPEUTIC AGENTS” (ModernaTX, Inc., priority 2021, published 2025)

Legend:
endothelial cells [1] = experiment: Expression of tdTomato (Cre mRNA) in endothelial cells following intravenous administration of loaded LNPs (flow cytometry of lung cells); type: in vivo, mice (Ail4); conditions: ionizable lipid/PEG lipid VI-4/PEG-DMG, 30 mol % cationic lipid or none, i.v., 8 days before harvest
Procedure: (§1) Reagents: Digestion Media: 3 mg/mL collagenase 1, 0.1 mg/mL DNase I, Dulbecco's Modified Eagle Medium (DMEM); Wash solution: Dulbecco's phosphate-buffered saline (DPBS)+0.5% Bovine Serum Albumin (BSA); FACS Buffer: Flow Cytometry Staining Buffer (eBioscience™, ThermoFisher Scientific).
(§2) • CD31: General Endothelial Marker; • CD45: Leukocyte Common Marker; • mOX40L: Transmembrane Reporter; • tdTomato: Fluorescence Protein Reporter from Cre-mediated recombination in Ail4 mice.
(§3) Six-week-old female mice (Ail4) were aged in-house to approximately 7-8 weeks of age. With an n=5 per group, Cre mRNA (i.e., mRNA leading to expression of tdTomato) formulated LNPs were intravenously dosed via the lateral tail vein 8 days before harvest. […] Collected data was analyzed using flow cytometry analysis software (FlowJo™).
(§4) To assess the delivery of a therapeutic agent comprised in loaded LNPs of the disclosure to endothelial cells, the expression of Cre and mOX40L mRNA encapsulated in loaded LNPs of the disclosure was measured in endothelial cells following administration of the loaded LNPs to Ail4 mice as described in Example 3. […] The expression was evaluated in LNPs comprising 30 mol % of a cationic lipid of Formula (I) and in loaded LNPs not comprising the cationic of Formula (I) (i.e., LNPs not comprising a cationic lipid, or LNPs comprising dioleoyl-3-trimethylammonium propane (DOTAP)).

endothelial cells [2] = experiment: Expression of mOX40L in endothelial cells following intravenous administration of loaded LNPs (flow cytometry of lung cells); type: in vivo, mice (Ail4); conditions: ionizable lipid/PEG lipid VI-4/PEG-DMG, 30 mol % cationic lipid or none, i.v., 24 h after dose
Procedure: as §1, §2, §3, §4

`CCCCCCCC/C=C\CCCCCCCC(=O)OCC(C[N+](C)(C)C)OC(=O)CCCCCCC/C=C\CCCCCCCC` (centres unmarked) [DOTAP, dioleoyl-3-trimethylammonium propane] was tested, and the “% Endothelial cells Average” value (endothelial cells [1]) was 0% and the “% Endothelial cells Average” value (endothelial cells [2]) was 0%.
